Tested on: patient experiencing radiation induced enteritis
Assay: Administration of rifaximin to a patient experiencing radiation induced enteritis
Type: in vivo, human
Conditions: no data shown
From the text: The recognition of bacteria as primarily causative of the symptomatology seen in cancer patients represents a paradigm shift in that bacterial colonization, overgrowth, and/or invasion are a potentially curable or controllable source of a patient's discomfort. Furthermore, this represents a paradigm shift in that prior measures commonly used in the amelioration of such problems were supportive in nature, addressing the symptoms of these conditions and not the root cause itself. This permits greater targeting of the symptoms' cause and results in improved efficacy of symptom amelioration, while at the same time causing fewer adverse effects, as would be commonly seen with supportive measures such as traditional anti-diarrheals. […] Furthermore, it enables the physician to treat the cause of the symptoms in such a way that suboptimally effective supportive measures can not. This is seen in terms of greater targeting of therapy, fewer drug interactions, and improved tolerance to therapy. Particular benefit is seen with this therapy because it may prevent or ameliorate symptoms that would otherwise necessitate a break in treatment to allow the patient to recover from their symptoms. […]

With `CO[C@H]1/C=C/O[C@@]2(C)Oc3c(C)c(O)c4c(O)c(c5c(nc6cc(C)ccn65)c4c3C2=O)NC(=O)/C(C)=C\C=C\[C@H](C)[C@H](O)[C@@H](C)[C@@H](O)[C@@H](C)[C@H](OC(C)=O)[C@@H]1C` [Rifaximin] the “symptoms of radiation induced enteritis” value was “reduces symptoms of the condition”.

From patent US20100069421A1, “COMPOSITIONS AND METHODS FOR THE TREATMENT OF RADIATION PROCTOSIGMOITIS” (priority 2006, published 2010)
